From the kinase profiling compilation of Christmann-Franck et al. (2016)

Columns and labels:
Experiment in all cases: KINOMEscan competition binding
Conditions in all cases: compound 10.0 µM
MAPK9 (human) = MAPK9 (human) (UniProt P45984)
NEK1 (human) = NEK1 (human) (UniProt Q96PY6)
TNK2 (human) = TNK2 (human) (UniProt Q07912)
FGFR2 (human) = FGFR2 (human) (UniProt P21802)
MYLK2 (human) = MYLK2 (human) (UniProt Q9H1R3)
MARK2 (human) = MARK2 (human) (UniProt Q7KZI7)
MAPK1 (human) = MAPK1 (human) (UniProt P28482)
LCK (human) = LCK (human) (UniProt P06239)
AKT3 (human) = AKT3 (human) (UniProt Q9Y243)
AKT3 (human), sequence (Q9Y243 whole entry, looked up): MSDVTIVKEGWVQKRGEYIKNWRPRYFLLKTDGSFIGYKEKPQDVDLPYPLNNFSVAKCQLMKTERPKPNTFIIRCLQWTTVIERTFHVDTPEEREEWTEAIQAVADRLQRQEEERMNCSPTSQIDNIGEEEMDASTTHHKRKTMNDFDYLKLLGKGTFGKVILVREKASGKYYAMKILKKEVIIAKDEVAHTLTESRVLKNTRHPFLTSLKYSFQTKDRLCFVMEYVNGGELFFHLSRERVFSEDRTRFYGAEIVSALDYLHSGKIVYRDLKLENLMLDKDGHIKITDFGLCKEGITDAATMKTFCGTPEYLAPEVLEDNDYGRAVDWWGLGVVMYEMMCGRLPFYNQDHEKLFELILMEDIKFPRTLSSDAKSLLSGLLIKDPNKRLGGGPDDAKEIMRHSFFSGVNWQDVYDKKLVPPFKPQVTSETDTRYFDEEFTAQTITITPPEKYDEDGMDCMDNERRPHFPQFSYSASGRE

TLK2 (human) = TLK2 (human) (UniProt Q86UE8)
STK38L (human) = STK38L (human) (UniProt Q9Y2H1)
STK10 (human) = STK10 (human) (UniProt O94804)
STK36 (human) = STK36 (human) (UniProt Q9NRP7)
PRKX (human) = PRKX (human) (UniProt P51817)
MST4 (human) = MST4 (human) (UniProt Q9P289)
ERBB2 (human) = ERBB2 (human) (UniProt P04626)
ERBB2 (human), sequence (P04626 whole entry, looked up): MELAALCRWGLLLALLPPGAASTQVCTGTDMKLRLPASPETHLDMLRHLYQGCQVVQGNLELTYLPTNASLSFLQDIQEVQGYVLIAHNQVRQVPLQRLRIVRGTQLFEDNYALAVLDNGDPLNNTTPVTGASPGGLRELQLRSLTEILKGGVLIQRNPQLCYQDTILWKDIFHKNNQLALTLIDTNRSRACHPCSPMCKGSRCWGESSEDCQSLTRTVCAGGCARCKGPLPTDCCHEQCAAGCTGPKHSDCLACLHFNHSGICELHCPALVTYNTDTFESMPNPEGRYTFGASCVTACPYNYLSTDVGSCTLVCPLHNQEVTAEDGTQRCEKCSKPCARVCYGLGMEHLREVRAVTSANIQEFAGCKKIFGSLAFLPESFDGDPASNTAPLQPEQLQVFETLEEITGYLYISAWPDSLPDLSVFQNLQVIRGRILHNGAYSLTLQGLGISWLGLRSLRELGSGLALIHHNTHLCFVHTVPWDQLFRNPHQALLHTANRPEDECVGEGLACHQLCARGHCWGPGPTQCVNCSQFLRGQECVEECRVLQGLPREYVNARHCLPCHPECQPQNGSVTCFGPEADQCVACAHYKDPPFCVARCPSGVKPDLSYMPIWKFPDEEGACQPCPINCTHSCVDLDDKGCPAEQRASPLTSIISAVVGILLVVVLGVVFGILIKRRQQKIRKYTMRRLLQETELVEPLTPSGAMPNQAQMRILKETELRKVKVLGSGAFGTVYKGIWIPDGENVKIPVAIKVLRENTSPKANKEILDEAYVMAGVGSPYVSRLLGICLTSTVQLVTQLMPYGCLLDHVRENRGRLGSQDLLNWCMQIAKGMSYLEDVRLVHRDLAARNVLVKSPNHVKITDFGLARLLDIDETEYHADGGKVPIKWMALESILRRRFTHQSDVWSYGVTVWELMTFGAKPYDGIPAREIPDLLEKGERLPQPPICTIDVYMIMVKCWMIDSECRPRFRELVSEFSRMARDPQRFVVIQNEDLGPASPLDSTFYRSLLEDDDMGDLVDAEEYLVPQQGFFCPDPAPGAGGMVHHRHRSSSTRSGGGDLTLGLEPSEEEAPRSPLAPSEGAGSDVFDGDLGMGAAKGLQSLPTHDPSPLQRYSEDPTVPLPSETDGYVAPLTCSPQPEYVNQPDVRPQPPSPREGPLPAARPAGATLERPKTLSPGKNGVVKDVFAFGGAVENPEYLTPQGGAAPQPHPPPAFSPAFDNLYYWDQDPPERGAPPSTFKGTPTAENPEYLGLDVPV

CDC42BPA (human) = CDC42BPA (human) (UniProt Q5VT25)
EPHA5 (human) = EPHA5 (human) (UniProt P54756)
MLTK (human) = MLTK (human) (UniProt Q9NYL2)
ANKK1 (human) = ANKK1 (human) (UniProt Q8NFD2)
DDR1 (human) = DDR1 (human) (UniProt Q08345)
TNNI3K (human) = TNNI3K (human) (UniProt Q59H18)
EPHB4 (human) = EPHB4 (human) (UniProt P54760)
EPHB4 (human), sequence (P54760 whole entry, looked up): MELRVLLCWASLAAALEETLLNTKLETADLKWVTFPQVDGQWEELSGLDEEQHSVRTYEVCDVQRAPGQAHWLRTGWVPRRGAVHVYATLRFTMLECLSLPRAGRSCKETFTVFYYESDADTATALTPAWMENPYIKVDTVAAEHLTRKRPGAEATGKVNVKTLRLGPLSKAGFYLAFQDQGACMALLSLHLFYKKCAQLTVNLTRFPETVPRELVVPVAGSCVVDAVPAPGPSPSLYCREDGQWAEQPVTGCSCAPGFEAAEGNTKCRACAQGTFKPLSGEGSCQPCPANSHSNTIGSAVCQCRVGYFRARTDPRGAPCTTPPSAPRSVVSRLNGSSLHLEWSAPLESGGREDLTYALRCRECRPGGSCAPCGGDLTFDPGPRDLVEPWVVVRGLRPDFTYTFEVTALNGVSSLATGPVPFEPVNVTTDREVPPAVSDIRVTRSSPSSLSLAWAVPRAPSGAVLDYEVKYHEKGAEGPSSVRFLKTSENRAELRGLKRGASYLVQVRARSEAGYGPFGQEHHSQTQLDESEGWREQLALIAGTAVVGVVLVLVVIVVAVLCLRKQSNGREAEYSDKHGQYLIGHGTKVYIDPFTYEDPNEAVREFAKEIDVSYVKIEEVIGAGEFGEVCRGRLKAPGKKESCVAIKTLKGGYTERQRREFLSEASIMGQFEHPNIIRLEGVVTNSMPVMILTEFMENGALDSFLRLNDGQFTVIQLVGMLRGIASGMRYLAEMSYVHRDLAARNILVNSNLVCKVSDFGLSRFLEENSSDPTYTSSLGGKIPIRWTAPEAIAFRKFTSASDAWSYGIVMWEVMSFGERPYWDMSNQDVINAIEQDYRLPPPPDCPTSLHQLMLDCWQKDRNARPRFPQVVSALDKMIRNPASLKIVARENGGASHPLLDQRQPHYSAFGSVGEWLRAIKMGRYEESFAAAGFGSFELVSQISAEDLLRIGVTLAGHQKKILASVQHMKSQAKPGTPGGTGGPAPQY

ACVR1B (human) = ACVR1B (human) (UniProt P36896)
MARK4 (human) = MARK4 (human) (UniProt Q96L34)
[1] = tested on: ABL1 (human), P00519 [T315I]
MAP3K3 (human) = MAP3K3 (human) (UniProt Q99759)
MAP3K3 (human), sequence (Q99759 whole entry, looked up): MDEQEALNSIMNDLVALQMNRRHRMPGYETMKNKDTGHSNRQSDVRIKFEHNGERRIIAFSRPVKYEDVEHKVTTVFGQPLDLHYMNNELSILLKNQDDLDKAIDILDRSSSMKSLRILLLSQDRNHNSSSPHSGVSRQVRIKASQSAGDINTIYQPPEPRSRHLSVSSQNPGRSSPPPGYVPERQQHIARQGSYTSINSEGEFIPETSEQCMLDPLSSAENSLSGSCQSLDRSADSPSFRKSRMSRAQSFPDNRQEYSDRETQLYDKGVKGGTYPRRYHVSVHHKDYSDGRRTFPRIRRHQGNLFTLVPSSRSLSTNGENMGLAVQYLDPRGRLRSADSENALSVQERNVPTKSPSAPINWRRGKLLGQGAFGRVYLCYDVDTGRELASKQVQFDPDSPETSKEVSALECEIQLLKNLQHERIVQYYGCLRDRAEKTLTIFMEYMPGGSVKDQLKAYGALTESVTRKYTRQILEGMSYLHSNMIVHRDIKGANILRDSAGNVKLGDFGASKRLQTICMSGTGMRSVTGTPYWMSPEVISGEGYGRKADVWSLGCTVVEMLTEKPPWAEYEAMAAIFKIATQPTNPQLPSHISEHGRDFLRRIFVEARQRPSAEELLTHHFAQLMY

TESK1 (human) = TESK1 (human) (UniProt Q15569)
[2] = tested on: ABL1 (human), P00519 [Q252H]
STK32C (human) = STK32C (human) (UniProt Q86UX6)
STK32C (human), sequence (Q86UX6 whole entry, looked up): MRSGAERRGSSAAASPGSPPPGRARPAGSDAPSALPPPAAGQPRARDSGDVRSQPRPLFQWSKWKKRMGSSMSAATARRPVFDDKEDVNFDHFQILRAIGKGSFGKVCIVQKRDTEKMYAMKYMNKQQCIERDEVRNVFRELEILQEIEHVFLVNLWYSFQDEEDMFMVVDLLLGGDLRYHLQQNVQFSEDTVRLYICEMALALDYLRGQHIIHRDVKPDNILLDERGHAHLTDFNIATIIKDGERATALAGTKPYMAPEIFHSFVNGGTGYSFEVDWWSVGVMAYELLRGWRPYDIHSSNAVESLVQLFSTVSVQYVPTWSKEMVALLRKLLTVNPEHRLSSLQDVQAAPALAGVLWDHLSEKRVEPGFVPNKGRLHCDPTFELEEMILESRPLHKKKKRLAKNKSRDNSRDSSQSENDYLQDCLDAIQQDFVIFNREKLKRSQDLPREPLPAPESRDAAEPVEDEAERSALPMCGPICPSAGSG

TSSK1B (human) = TSSK1B (human) (UniProt Q9BXA7)
PAK4 (human) = PAK4 (human) (UniProt O96013)
PRKG1 (human) = PRKG1 (human) (UniProt Q13976)
[3] = tested on: EGFR (human), P00533 [L858R]
SIK2 (human) = SIK2 (human) (UniProt Q9H0K1)
SIK2 (human), sequence (Q9H0K1 whole entry, looked up): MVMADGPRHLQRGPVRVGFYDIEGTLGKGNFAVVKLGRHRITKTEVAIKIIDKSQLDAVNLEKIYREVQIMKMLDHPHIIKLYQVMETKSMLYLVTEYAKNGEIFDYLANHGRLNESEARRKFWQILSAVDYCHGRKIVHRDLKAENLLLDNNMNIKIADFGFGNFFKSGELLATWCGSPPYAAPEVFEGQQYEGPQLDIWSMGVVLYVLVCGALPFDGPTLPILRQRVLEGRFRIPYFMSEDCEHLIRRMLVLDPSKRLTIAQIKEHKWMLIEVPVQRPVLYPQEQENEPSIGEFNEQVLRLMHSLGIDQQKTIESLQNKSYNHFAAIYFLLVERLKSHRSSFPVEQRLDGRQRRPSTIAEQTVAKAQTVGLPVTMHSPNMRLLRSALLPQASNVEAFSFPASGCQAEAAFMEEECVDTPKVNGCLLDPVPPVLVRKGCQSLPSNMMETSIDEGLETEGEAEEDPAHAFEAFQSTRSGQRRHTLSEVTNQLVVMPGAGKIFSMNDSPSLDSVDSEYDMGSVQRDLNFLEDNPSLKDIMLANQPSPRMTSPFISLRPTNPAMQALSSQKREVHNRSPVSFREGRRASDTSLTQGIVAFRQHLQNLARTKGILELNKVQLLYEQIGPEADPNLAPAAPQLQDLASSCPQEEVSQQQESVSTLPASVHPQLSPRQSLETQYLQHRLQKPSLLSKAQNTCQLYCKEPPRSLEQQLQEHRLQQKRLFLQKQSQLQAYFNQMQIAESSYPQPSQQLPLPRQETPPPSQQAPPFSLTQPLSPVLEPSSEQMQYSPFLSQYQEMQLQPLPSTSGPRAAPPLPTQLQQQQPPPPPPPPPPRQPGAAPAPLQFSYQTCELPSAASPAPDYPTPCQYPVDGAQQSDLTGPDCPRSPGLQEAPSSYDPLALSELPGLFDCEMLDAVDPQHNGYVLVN

PRKD2 (human) = PRKD2 (human) (UniProt Q9BZL6)
[4] = biological target: JAK1 JH1 catalytic (human) (UniProt P23458)
MAP2K1 (human) = MAP2K1 (human) (UniProt Q02750)
CSNK1A1L (human) = CSNK1A1L (human) (UniProt Q8N752)
SGK110 (human) = SGK110 (human) (UniProt P0C264)
CDK8 (human) = CDK8 (human) (UniProt P49336)
FGFR1 (human) = FGFR1 (human) (UniProt P11362)

CN1C(=O)c2ccccc2N(C)c2nc(Nc3ccc(N4CCC(O)CC4)cc3)ncc21
kinase still bound, per cent of control (MAPK9 (human)): 100%
kinase still bound, per cent of control (NEK1 (human)): 93%
kinase still bound, per cent of control (TNK2 (human)): 29%
kinase still bound, per cent of control (FGFR2 (human)): 63%
kinase still bound, per cent of control (MYLK2 (human)): 80%
kinase still bound, per cent of control (MARK2 (human)): 51%
kinase still bound, per cent of control (MAPK1 (human)): 100%
kinase still bound, per cent of control (LCK (human)): 50%
kinase still bound, per cent of control (AKT3 (human)): 100%
kinase still bound, per cent of control (TLK2 (human)): 100%
kinase still bound, per cent of control (STK38L (human)): 82%
kinase still bound, per cent of control (STK10 (human)): 100%
kinase still bound, per cent of control (STK36 (human)): 100%
kinase still bound, per cent of control (PRKX (human)): 93%
kinase still bound, per cent of control (MST4 (human)): 27%
kinase still bound, per cent of control (ERBB2 (human)): 99%
kinase still bound, per cent of control (CDC42BPA (human)): 90%
kinase still bound, per cent of control (EPHA5 (human)): 100%
kinase still bound, per cent of control (MLTK (human)): 100%
kinase still bound, per cent of control (ANKK1 (human)): 100%
kinase still bound, per cent of control (DDR1 (human)): 68%
kinase still bound, per cent of control (TNNI3K (human)): 100%
kinase still bound, per cent of control (EPHB4 (human)): 100%
kinase still bound, per cent of control (ACVR1B (human)): 91%
kinase still bound, per cent of control (MARK4 (human)): 66%
kinase still bound, per cent of control [1]: 3.6%
kinase still bound, per cent of control (MAP3K3 (human)): 0.35%
kinase still bound, per cent of control (TESK1 (human)): 97%
kinase still bound, per cent of control [2]: 2.1%
kinase still bound, per cent of control (STK32C (human)): 100%
kinase still bound, per cent of control (TSSK1B (human)): 100%
kinase still bound, per cent of control (PAK4 (human)): 97%
kinase still bound, per cent of control (PRKG1 (human)): 100%
kinase still bound, per cent of control [3]: 93%
kinase still bound, per cent of control (SIK2 (human)): 61%
kinase still bound, per cent of control (PRKD2 (human)): 99%
kinase still bound, per cent of control [4]: 30%
kinase still bound, per cent of control (MAP2K1 (human)): 100%
kinase still bound, per cent of control (CSNK1A1L (human)): 98%
kinase still bound, per cent of control (SGK110 (human)): 5.4%
kinase still bound, per cent of control (CDK8 (human)): 100%
kinase still bound, per cent of control (FGFR1 (human)): 61%

CN1CCN(c2ccc(C(=O)Nc3ncc4c(n3)N(C)c3ccccc3C(=O)N4C)cc2)CC1
kinase still bound, per cent of control (MAPK9 (human)): 100%
kinase still bound, per cent of control (NEK1 (human)): 100%
kinase still bound, per cent of control (TNK2 (human)): 92%
kinase still bound, per cent of control (FGFR2 (human)): 100%
kinase still bound, per cent of control (MYLK2 (human)): 100%
kinase still bound, per cent of control (MARK2 (human)): 100%
kinase still bound, per cent of control (MAPK1 (human)): 100%
kinase still bound, per cent of control (LCK (human)): 100%
kinase still bound, per cent of control (AKT3 (human)): 90%
kinase still bound, per cent of control (TLK2 (human)): 100%
kinase still bound, per cent of control (STK38L (human)): 100%
kinase still bound, per cent of control (STK10 (human)): 100%
kinase still bound, per cent of control (STK36 (human)): 100%
kinase still bound, per cent of control (PRKX (human)): 86%
kinase still bound, per cent of control (MST4 (human)): 100%
kinase still bound, per cent of control (ERBB2 (human)): 88%
kinase still bound, per cent of control (CDC42BPA (human)): 100%
kinase still bound, per cent of control (EPHA5 (human)): 100%
kinase still bound, per cent of control (MLTK (human)): 100%
kinase still bound, per cent of control (ANKK1 (human)): 28%
kinase still bound, per cent of control (DDR1 (human)): 100%
kinase still bound, per cent of control (TNNI3K (human)): 100%
kinase still bound, per cent of control (EPHB4 (human)): 97%
kinase still bound, per cent of control (ACVR1B (human)): 100%
kinase still bound, per cent of control (MARK4 (human)): 91%
kinase still bound, per cent of control [1]: 85%
kinase still bound, per cent of control (MAP3K3 (human)): 100%
kinase still bound, per cent of control (TESK1 (human)): 91%
kinase still bound, per cent of control [2]: 100%
kinase still bound, per cent of control (STK32C (human)): 100%
kinase still bound, per cent of control (TSSK1B (human)): 100%
kinase still bound, per cent of control (PAK4 (human)): 100%
kinase still bound, per cent of control (PRKG1 (human)): 100%
kinase still bound, per cent of control [3]: 100%
kinase still bound, per cent of control (SIK2 (human)): 78%
kinase still bound, per cent of control (PRKD2 (human)): 100%
kinase still bound, per cent of control [4]: 100%
kinase still bound, per cent of control (MAP2K1 (human)): 100%
kinase still bound, per cent of control (CSNK1A1L (human)): 77%
kinase still bound, per cent of control (SGK110 (human)): 100%
kinase still bound, per cent of control (CDK8 (human)): 100%
kinase still bound, per cent of control (FGFR1 (human)): 100%

CN1C(=O)c2ccccc2N(C)c2nc(NS(=O)(=O)c3ccc(N)cc3)ncc21
kinase still bound, per cent of control (MAPK9 (human)): 100%
kinase still bound, per cent of control (NEK1 (human)): 100%
kinase still bound, per cent of control (TNK2 (human)): 100%
kinase still bound, per cent of control (FGFR2 (human)): 100%
kinase still bound, per cent of control (MYLK2 (human)): 88%
kinase still bound, per cent of control (MARK2 (human)): 100%
kinase still bound, per cent of control (MAPK1 (human)): 100%
kinase still bound, per cent of control (LCK (human)): 100%
kinase still bound, per cent of control (AKT3 (human)): 88%
kinase still bound, per cent of control (TLK2 (human)): 100%
kinase still bound, per cent of control (STK38L (human)): 100%
kinase still bound, per cent of control (STK10 (human)): 100%
kinase still bound, per cent of control (STK36 (human)): 100%
kinase still bound, per cent of control (PRKX (human)): 94%
kinase still bound, per cent of control (MST4 (human)): 100%
kinase still bound, per cent of control (ERBB2 (human)): 100%
kinase still bound, per cent of control (CDC42BPA (human)): 90%
kinase still bound, per cent of control (EPHA5 (human)): 100%
kinase still bound, per cent of control (MLTK (human)): 100%
kinase still bound, per cent of control (ANKK1 (human)): 32%
kinase still bound, per cent of control (DDR1 (human)): 100%
kinase still bound, per cent of control (TNNI3K (human)): 100%
kinase still bound, per cent of control (EPHB4 (human)): 100%
kinase still bound, per cent of control (ACVR1B (human)): 100%
kinase still bound, per cent of control (MARK4 (human)): 93%
kinase still bound, per cent of control [1]: 97%
kinase still bound, per cent of control (MAP3K3 (human)): 100%
kinase still bound, per cent of control (TESK1 (human)): 100%
kinase still bound, per cent of control [2]: 82%
kinase still bound, per cent of control (STK32C (human)): 100%
kinase still bound, per cent of control (TSSK1B (human)): 100%
kinase still bound, per cent of control (PAK4 (human)): 100%
kinase still bound, per cent of control (PRKG1 (human)): 100%
kinase still bound, per cent of control [3]: 100%
kinase still bound, per cent of control (SIK2 (human)): 89%
kinase still bound, per cent of control (PRKD2 (human)): 100%
kinase still bound, per cent of control [4]: 100%
kinase still bound, per cent of control (MAP2K1 (human)): 100%
kinase still bound, per cent of control (CSNK1A1L (human)): 100%
kinase still bound, per cent of control (SGK110 (human)): 100%
kinase still bound, per cent of control (CDK8 (human)): 100%
kinase still bound, per cent of control (FGFR1 (human)): 100%
